Measurements taken from patent US4225595A, “Piperazine phosphates and phosphonate insecticides” (priority 1979, dated 1980).
Values after ≈ are worked out from the molar mass of the structure shown.

system: Black Bean Aphid [Aphis fabae (Scop.)]; assay: Black Bean Aphid (BBA) plant spray assay, mortality after three days; assay type: in vivo; details: spray on infested nasturtium plants
Description: (§1) Screening was initiated at a maximal concentration level believed to be injurious to the insect population. The initial level should not be understood as representing a maximum at which a viable test for insecticidal activity can be conducted. […]
(§2) Nasturtium plants, Tropaeolum sp., approximately five centimeters (cm) high were transplanted into sandy loam soil in three-inch clay pots. Each pot was infested with 25-50 black bean aphids of mixed ages. Twenty-four hours later the pots were sprayed to the point of run-off with 50--50 acetone-water solutions of the test compounds.
(§3) Mortality rates were recorded after the infested plants had been held in the greenhouse for three days. Test concentrations ranged from 0.05% down to that at which 50% mortality occurs. Green Peach Aphid [Myzus persicae (Sulzer)], (GPA)
(§4) A less than 50% mortality rate at the initial concentration is indicated by a "greater than" sign (>). An approximately 50% mortality rate is indicated by the initial concentration rate. Other results are the dilutions at which an LD50 was achieved.

Question: How did the “LD50 BBA” value turn out when `COP(=S)(OC)SCC(=O)N1CCN(C(=O)OC(C)C)CC1` [Compound 18, 1-N-ispropoxycarbo-4-N-O,O-dimethylphosphorodithioylacetyl piperazine] was run?
Answer: .0005%

Question: `CCOP(=S)(OCC)SCC(=O)N1CCN(C(=O)OC(C)C)CC1` [Compound 19, 1-N-isopropoxycarbo-4-N-O,O-diethylphosphorodithioylacetyl piperazine] was tested. Which “LD50 BBA” value did it give?
Answer: .0006%

Question: For `CCOP(=O)(OCC)SCC(=O)N1CCN(C(=O)OC(C)C)CC1` [Compound 20, 1-N-isopropoxycarbo-4-N-O,O-diethylphosphoromonothioylacetyl piperazine], which “LD50 BBA” value is on record?
Answer: .0005%

system: Green Peach Aphid [Myzus persicae (Sulzer)]; assay: Green Peach Aphid (GPA) plant spray assay; assay type: in vivo; details: spray on infested radish plants, three days
Description: (§5) Screening was initiated at a maximal concentration level believed to be injurious to the insect population. The initial level should not be understood as representing a maximum at which a viable test for insecticidal activity can be conducted.
as §2, §3
(§6) The insecticidal properties were tested in the same manner as for black beam aphids with the substitution of the nasturtiums by radish plants, Rhaphanus sativus. German Cockroach [Blatella germanica (Linne)], (GR)--Direct Spray
as §4

Question: For `COP(=S)(OC)SCC(=O)N1CCN(C(=O)OC(C)C)CC1` [Compound 18, 1-N-ispropoxycarbo-4-N-O,O-dimethylphosphorodithioylacetyl piperazine], which “LD50 GPA” value is on record?
Answer: .005%

Question: With `CCOP(=S)(OCC)SCC(=O)N1CCN(C(=O)OC(C)C)CC1` [Compound 19, 1-N-isopropoxycarbo-4-N-O,O-diethylphosphorodithioylacetyl piperazine] as the molecule, how does the “LD50 GPA” value read?
Answer: .006%

Question: `CCOP(=O)(OCC)SCC(=O)N1CCN(C(=O)OC(C)C)CC1` [Compound 20, 1-N-isopropoxycarbo-4-N-O,O-diethylphosphoromonothioylacetyl piperazine] was tested. Which “LD50 GPA” value did it give?
Answer: .008%

system: German Cockroach [Blatella germanica (Linne)]; assay: German Cockroach (GR) direct spray, mortality 7 days later; assay type: in vivo; details: one-month-old nymphs, initial 0.1%
Experimental: as §5
(§7) Mobile insects, such as houseflies, German cockroaches, Lygus bugs, were contained for treatment in circular cardboard cages covered with cellophane on the bottom and tulle netting on the top.
as §6
(§8) Test compounds were diluted in a 50--50 acetonewater solution. Two cubic centimeters (cc) of the compound solutions were sprayed through a DeVilbiss type EGA hand spray gun into cages each containing 10 one-month-old German cockroach nymphs.
The percent mortality was recorded 7 days later. Test concentrations ranged from 0.1% down to that at which approximately 50% mortality occurs.
as §4

Question: With `COP(=S)(OC)SCC(=O)N1CCN(C(=O)OC(C)C)CC1` [Compound 18, 1-N-ispropoxycarbo-4-N-O,O-dimethylphosphorodithioylacetyl piperazine] as the molecule, how does the “LD50 GR” value read?
Answer: > .1%

Question: For `CCOP(=S)(OCC)SCC(=O)N1CCN(C(=O)OC(C)C)CC1` [Compound 19, 1-N-isopropoxycarbo-4-N-O,O-diethylphosphorodithioylacetyl piperazine], which “LD50 GR” value is on record?
Answer: > .1%

Question: `CCOP(=O)(OCC)SCC(=O)N1CCN(C(=O)OC(C)C)CC1` [Compound 20, 1-N-isopropoxycarbo-4-N-O,O-diethylphosphoromonothioylacetyl piperazine] was tested. Which “LD50 GR” value did it give?
Answer: > .1%

system: Lygus Bug [Lygus hesperus (Knight)]; assay: Lygus Bug (LB) direct spray assay, mortality 48 hours later; assay type: in vivo; details: adults, initial 0.05%
Experimental: as §5, §7, §8
Lygus Bug [Lygus hesperus (Knight)], (LB)--Direct Spray Assay
(§9) The species was treated in the same manner as the German cockroach. The cages contained one string beam pod and 10 adult Lygus bugs. The percent mortality was recorded 48 hours later. Test concentrations ranged from 0.05% down to that at which approximately 50% mortality occurs. Saltmarsh Caterpillar [Estigmene acrea (Drury)], (SMC)--Leaf Dip Assay
as §4

Question: Which “LD50 LB” value does the source give for `COP(=S)(OC)SCC(=O)N1CCN(C(=O)OC(C)C)CC1` [Compound 18, 1-N-ispropoxycarbo-4-N-O,O-dimethylphosphorodithioylacetyl piperazine] here?
Answer: > .05%

Question: For `CCOP(=S)(OCC)SCC(=O)N1CCN(C(=O)OC(C)C)CC1` [Compound 19, 1-N-isopropoxycarbo-4-N-O,O-diethylphosphorodithioylacetyl piperazine], which “LD50 LB” value is on record?
Answer: > .05%

Question: With `CCOP(=O)(OCC)SCC(=O)N1CCN(C(=O)OC(C)C)CC1` [Compound 20, 1-N-isopropoxycarbo-4-N-O,O-diethylphosphoromonothioylacetyl piperazine] as the molecule, how does the “LD50 LB” value read?
Answer: > .05%

system: Saltmarsh Caterpillar [Estigmene acrea (Drury)]; assay: Saltmarsh Caterpillar (SMC) leaf dip assay; assay type: in vivo; details: curly dock leaves, second-instar larvae, 48 hours + 5 days
Experimental: as §5, §9
(§10) Test compounds were diluted in a 50--50 acetone-water solution. Approximately 1×1.5 inch sections of curly dock (Rumex crispus) leaves were immersed in the test solution for 2-3 seconds. After drying on a wire screen, the leaves were placed in petri dishes containing a moistened piece of filter paper. Each dish was infested with 5 secondinstar saltmarsh larvae.
(§11) Mortality of the larvae was recorded 48 hours later. A piece of synthetic media was added to the dishes containing surviving larvae. The larvae were then observed for 5 additional days for delayed effects of the test compounds. Test concentrations ranged from 0.05% down to that at which approximately 50% mortality occurs. Cabbage Looper [Trichoplusia ni (Hubner)], (CL)
as §4

Question: `COP(=S)(OC)SCC(=O)N1CCN(C(=O)OC(C)C)CC1` [Compound 18, 1-N-ispropoxycarbo-4-N-O,O-dimethylphosphorodithioylacetyl piperazine] was tested. Which “LD50 SMC” value did it give?
Answer: > .05%

Question: How did the “LD50 SMC” value turn out when `CCOP(=S)(OCC)SCC(=O)N1CCN(C(=O)OC(C)C)CC1` [Compound 19, 1-N-isopropoxycarbo-4-N-O,O-diethylphosphorodithioylacetyl piperazine] was run?
Answer: > .05%

Question: Which “LD50 SMC” value does the source give for `CCOP(=O)(OCC)SCC(=O)N1CCN(C(=O)OC(C)C)CC1` [Compound 20, 1-N-isopropoxycarbo-4-N-O,O-diethylphosphoromonothioylacetyl piperazine] here?
Answer: > .05%

system: Cabbage Looper [Trichoplusia ni (Hubner)]; assay: Cabbage Looper (CL) leaf dip assay; assay type: in vivo; details: squash cotyledons, initial 0.1%
Experimental: as §5, §10, §11
The effectiveness of the compounds was tested in the same manner as for the saltmarsh caterpillar with two exceptions. Cotyledons of hyzini squash (Calabacita abobrinha, were substituted for curly dock leaves and the initial test concentration was 0.1%. Tobacco Budworm [Heliothis virescens (Fabricius)], (TBW)
as §4

Question: For `COP(=S)(OC)SCC(=O)N1CCN(C(=O)OC(C)C)CC1` [Compound 18, 1-N-ispropoxycarbo-4-N-O,O-dimethylphosphorodithioylacetyl piperazine], which “LD50 CL” value is on record?
Answer: > .1%

Question: With `CCOP(=S)(OCC)SCC(=O)N1CCN(C(=O)OC(C)C)CC1` [Compound 19, 1-N-isopropoxycarbo-4-N-O,O-diethylphosphorodithioylacetyl piperazine] as the molecule, how does the “LD50 CL” value read?
Answer: > .1%

Question: For `CCOP(=O)(OCC)SCC(=O)N1CCN(C(=O)OC(C)C)CC1` [Compound 20, 1-N-isopropoxycarbo-4-N-O,O-diethylphosphoromonothioylacetyl piperazine], which “LD50 CL” value is on record?
Answer: > .1%

system: Southern House Mosquito Larvae (Culex pipiens quinquefasciatus); assay: Southern House Mosquito larvae (M) assay, mortality 48 hours after treatment; assay type: in vivo; details: third-instar larvae in aqueous solution, initial 1 ppm, read-out: LD50 M
Experimental: as §5
Tobacco budworms were tested in the same manner as the cabbage looper. Romaine lettuce (Latuca sativa) leaves provided the substrate. Southern House Mosquito Larvae (Culex pipiens quinquefasciatus), (M)
Ten third-instar larvae were placed in a six ounce wax paper cup containing 100 ml of an aqueous solution of the test compounds at a concentration of 1 ppm. The treated larvae were stored at 70° F. (21.5° C.) and mortality was recorded 48 hours after treatment. Two-Spotted Mite [Tetranychus urticae (Koch)], (2SM)
as §4

Question: How did the LC50 turn out when `COP(=S)(OC)SCC(=O)N1CCN(C(=O)OC(C)C)CC1` [Compound 18, 1-N-ispropoxycarbo-4-N-O,O-dimethylphosphorodithioylacetyl piperazine] was run?
Answer: 1 µg/mL (≈ 2.7 µM)

Question: Which LC50 does the source give for `CCOP(=S)(OCC)SCC(=O)N1CCN(C(=O)OC(C)C)CC1` [Compound 19, 1-N-isopropoxycarbo-4-N-O,O-diethylphosphorodithioylacetyl piperazine] here?
Answer: > 1 µg/mL

Question: With `CCOP(=O)(OCC)SCC(=O)N1CCN(C(=O)OC(C)C)CC1` [Compound 20, 1-N-isopropoxycarbo-4-N-O,O-diethylphosphoromonothioylacetyl piperazine] as the molecule, how does the LC50 read?
Answer: > 1 µg/mL

system: Two-Spotted Mite [Tetranychus urticae (Koch)]; assay: Two-Spotted Mite (2SM) plant dip assay, mortality seven days later; assay type: in vivo; details: adult mites
Description: as §1
Pinto bean plants (Phaseolus vulgaris) approximately 10 cm high were transplanted into sandy loam soil in three-inch clay pots. The plants were thoroughly infested with two-spotted mites of mixed ages and sexes. Twenty-four hours after infestation the plants were inverted and dipped for 2-3 seconds in 50--50 acetone-water solutions of the test compounds.
Mortality ratings for both adult mites and nymphs hatching after treatment were taken seven days later. Test concentrations ranged from 0.05% down to that at which 50% mortality occurs.
as §4

Question: Which “LD50 2SM Adults” value does the source give for `COP(=S)(OC)SCC(=O)N1CCN(C(=O)OC(C)C)CC1` [Compound 18, 1-N-ispropoxycarbo-4-N-O,O-dimethylphosphorodithioylacetyl piperazine] here?
Answer: < .05%

Question: For `CCOP(=S)(OCC)SCC(=O)N1CCN(C(=O)OC(C)C)CC1` [Compound 19, 1-N-isopropoxycarbo-4-N-O,O-diethylphosphorodithioylacetyl piperazine], which “LD50 2SM Adults” value is on record?
Answer: < .05%

Question: `CCOP(=O)(OCC)SCC(=O)N1CCN(C(=O)OC(C)C)CC1` [Compound 20, 1-N-isopropoxycarbo-4-N-O,O-diethylphosphoromonothioylacetyl piperazine] was tested. Which “LD50 2SM Adults” value did it give?
Answer: < .05%

same assay, conditions: eggs (nymphs hatching after treatment)

Question: For `COP(=S)(OC)SCC(=O)N1CCN(C(=O)OC(C)C)CC1` [Compound 18, 1-N-ispropoxycarbo-4-N-O,O-dimethylphosphorodithioylacetyl piperazine], which “LD50 2SM Eggs” value is on record?
Answer: < .05%

Question: Which “LD50 2SM Eggs” value does the source give for `CCOP(=S)(OCC)SCC(=O)N1CCN(C(=O)OC(C)C)CC1` [Compound 19, 1-N-isopropoxycarbo-4-N-O,O-diethylphosphorodithioylacetyl piperazine] here?
Answer: < .05%

Question: How did the “LD50 2SM Eggs” value turn out when `CCOP(=O)(OCC)SCC(=O)N1CCN(C(=O)OC(C)C)CC1` [Compound 20, 1-N-isopropoxycarbo-4-N-O,O-diethylphosphoromonothioylacetyl piperazine] was run?
Answer: < .05%

system: Housefly [Musca domestica (Linn.)]; assay: not given; details: topical, 48 h

Question: For `COP(=S)(OC)SCC(=O)N1CCN(C(=O)OC(C)C)CC1` [Compound 18, 1-N-ispropoxycarbo-4-N-O,O-dimethylphosphorodithioylacetyl piperazine], which “LD50 HF” value is on record?
Answer: > 10 μg/25

Question: Which “LD50 HF” value does the source give for `CCOP(=S)(OCC)SCC(=O)N1CCN(C(=O)OC(C)C)CC1` [Compound 19, 1-N-isopropoxycarbo-4-N-O,O-diethylphosphorodithioylacetyl piperazine] here?
Answer: > 10 μg/25

Question: How did the “LD50 HF” value turn out when `CCOP(=O)(OCC)SCC(=O)N1CCN(C(=O)OC(C)C)CC1` [Compound 20, 1-N-isopropoxycarbo-4-N-O,O-diethylphosphoromonothioylacetyl piperazine] was run?
Answer: > 10 μg/25

system: Tobacco Budworm [Heliothis virescens (Fabricius)]; assay: not given; details: leaf dip, Romaine lettuce leaves

Question: How did the “LD50 TBW” value turn out when `COP(=S)(OC)SCC(=O)N1CCN(C(=O)OC(C)C)CC1` [Compound 18, 1-N-ispropoxycarbo-4-N-O,O-dimethylphosphorodithioylacetyl piperazine] was run?
Answer: > .1%

Question: With `CCOP(=S)(OCC)SCC(=O)N1CCN(C(=O)OC(C)C)CC1` [Compound 19, 1-N-isopropoxycarbo-4-N-O,O-diethylphosphorodithioylacetyl piperazine] as the molecule, how does the “LD50 TBW” value read?
Answer: > .1%

Question: For `CCOP(=O)(OCC)SCC(=O)N1CCN(C(=O)OC(C)C)CC1` [Compound 20, 1-N-isopropoxycarbo-4-N-O,O-diethylphosphoromonothioylacetyl piperazine], which “LD50 TBW” value is on record?
Answer: .1%
